Counter-ions that a name gives are not always drawn.

One data set deals with enterovirus type 70. The data set is described as follows: Inhibition of virus cytopathogenic effect (CPE) in LLC-MK2 cells. It is filed as cell-based. The conditions noted are these: for CI (chemotherapeutic index): CI=CD50 /ID50; for IC50: Enterovirus D, enterovirus type 70, 100-300 TCID50, LLC-MK2 cells, 33° C., examined at 48, 72, 96 and 120 h, read-out: IC50 (lowest concentration that reduced virus CPE by 50% or more).

Data set [1] can be described thus: Morphological cytotoxicity in LLC-MK2 cells. The class given is cell-based. The conditions noted are these: monkey, 33° C., examined at 48, 72, 96 and 120 h, read-out: CD50 (lowest concentration that caused morphological cytotoxicity by 50% or more).

Take `Cl.Cl.c1ccc2[nH]c(CNc3ccncc3)nc2c1` [Compound I, 2-(4-pyridylaminomethyl) benzimidazole dihydrochloride]: in the data set with enterovirus type 70, the “CI (chemotherapeutic index)” value stood at 152 and the IC50 was determined as 3.7 µg/mL. For the same compound, the CC50 in data set [1] was 562 µg/mL.

Regarding `Clc1ccc2[nH]c(CNc3ccncc3)nc2c1` [Compound II, 2-(4-pyridylaminomethyl)-5(6)-chlorobenzimidazole dihydrochloride], in the data set with enterovirus type 70, the “CI (chemotherapeutic index)” value is 99 and the IC50 was found to be 1.8 µg/mL. For the same compound, the CC50 in data set [1] is 178 µg/mL.

On to `O=C(c1ccccc1)c1ccc2[nH]c(CNc3ccncc3)nc2c1` [Compound III, 2-(4-pyridylaminomethyl)-5(6)-benzoylbenzimidazole dihydrochloride], for which, in the data set on enterovirus type 70, the IC50 is more than 100 µg/mL. The CC50 in data set [1] was more than 100 µg/mL.

In the case of `COc1ccc2[nH]c(CNc3ccncc3)nc2c1` [Compound IV, 2-(4-pyridylaminomethyl)-5(6)-methoxybenzimidazole dihydrochloride], in the data set on enterovirus type 70, the “CI (chemotherapeutic index)” value was found to be 64 and the IC50 is 27.6 µg/mL. The CC50 in data set [1] was found to be 1770 µg/mL.

As to `FC(F)(F)c1ccc2[nH]c(CNc3ccncc3)nc2c1` [Compound IX, 2-(4-pyridylaminomethyl)-5(6)-trifluoromethylbenzimidazole dihydrochloride], in the data set with enterovirus type 70, the “CI (chemotherapeutic index)” value is on record as 64 and the IC50 was 5.5 µg/mL. Further, the CC50 in data set [1] was 354 µg/mL.

Take `Cc1ccc2[nH]c(CNc3ccncc3)nc2c1` [Compound V, 2-(4-pyridylaminomethyl)-5(6)-methylbenzimidazole dihydrochloride]: in the data set on enterovirus type 70, the “CI (chemotherapeutic index)” value came to 311 and the IC50 was 1.8 µg/mL. For the same compound, the CC50 in data set [1] worked out at 562 µg/mL.

Consider `O=[N+]([O-])c1ccc2[nH]c(CNc3ccncc3)nc2c1` [Compound VI, 2-(4-pyridylaminomethyl)-5(6)-nitrobenzimidazole dihydrochloride], for which, in the data set on enterovirus type 70, the IC50 was more than 100 µg/mL. Moreover, the CC50 in data set [1] was more than 100 µg/mL.

Regarding `Cl.Cl.Clc1cc2nc(CNc3ccncc3)[nH]c2cc1Cl` [Compound VII, 2-(4-pyridylaminomethyl)-5,6-dichlorobenzimidazole dihydrochloride], in the data set with enterovirus type 70, the “CI (chemotherapeutic index)” value is 126 and the IC50 worked out at 1.4 µg/mL. Besides, in data set [1], the CC50 was 177 µg/mL.

As for `Nc1ccc2[nH]c(CNc3ccncc3)nc2c1` [Compound VIII, 2-(4-pyridylaminomethyl)-5(6)-aminobenzimidazole trihydrochloride], the IC50 in the data set on enterovirus type 70 is more than 100 µg/mL. The CC50 in data set [1] was more than 100 µg/mL.

Turning to `CCc1ccc2[nH]c(CNc3ccncc3)nc2c1` [Compound X, 2-(4-pyridylaminomethyl)-5(6)-ethylbenzimidazole dihydrochloride], in the data set on enterovirus type 70, the “CI (chemotherapeutic index)” value was 362 and the IC50 amounted to 0.98 µg/mL. In addition, the CC50 in data set [1] is 354 µg/mL.

Consider `Cc1cccc2[nH]c(CNc3ccncc3)nc12` [Compound XI, 2-(4-pyridylaminomethyl)-4(7)-methylbenzimidazole dihydrochloride], for which the IC50 in the data set on enterovirus type 70 was more than 100 µg/mL. The CC50 in data set [1] was more than 100 µg/mL.

`Cc1cc2nc(CNc3ccncc3)[nH]c2cc1C.Cl.Cl` [Compound XII, 2-(4-pyridylaminomethyl)-5,6-dimethylbenzimidazole dihydrochloride]: in the data set on enterovirus type 70, the “CI (chemotherapeutic index)” value was found to be 239 and the IC50 amounted to 3 µg/mL. The CC50 in data set [1] was 707 µg/mL.

For the origin of these results see patent US4714764A, “2-(4-pyridylaminomethyl)-benzimidazole derivatives having antiviral activity” (Maruishi Seiyaku Kabushiki Kaisha, priority 1985, dated 1987).
